Measured values as given in patent US6130215A, “Piperazinylalkylthiopyrimidine derivatives, pharmaceutical compositions containing the same and a process for the preparation of the novel compounds” (Egis Gyoyszergyar RT, priority 1995, dated 2000).
pIC50, pKi: −log10 of the molar value.

Legend:
[1] = biological target: T1, 5-HT2C receptor (Sus scrofa, UniProt K7GSR7); experiment: 5-HT2C receptor binding ([3H]mesulergine, pig brain choroid plexus membrane preparation); conditions: tritiated mesulergine, 37° C., read-out: Inhibition of receptor binding of the radioactive ligand, 5-HT2C (Ki)
T1 construct: pig brain choroid plexus membrane preparation; from tissue; host or cells: pig brain choroid plexus membrane preparation
T1 sequence (K7GSR7 1-457): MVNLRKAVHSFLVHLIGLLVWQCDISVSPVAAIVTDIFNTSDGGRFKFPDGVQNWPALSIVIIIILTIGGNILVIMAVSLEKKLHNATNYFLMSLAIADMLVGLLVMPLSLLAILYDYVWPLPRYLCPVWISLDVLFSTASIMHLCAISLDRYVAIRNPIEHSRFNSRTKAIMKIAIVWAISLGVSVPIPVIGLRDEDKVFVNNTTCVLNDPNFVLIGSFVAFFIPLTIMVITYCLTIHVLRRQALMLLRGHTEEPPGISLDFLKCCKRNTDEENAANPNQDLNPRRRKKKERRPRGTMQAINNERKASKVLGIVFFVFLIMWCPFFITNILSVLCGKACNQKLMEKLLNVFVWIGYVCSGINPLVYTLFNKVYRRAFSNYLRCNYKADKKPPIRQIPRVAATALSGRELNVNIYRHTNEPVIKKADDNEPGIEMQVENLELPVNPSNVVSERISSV
Description: (§1) 5-HT2A and 5-HT2C receptor binding was measured according to the methods described by Leysen et al. /Mol. Pharmacol., 21, 301 (1981)/ and Pazos et al. /Eur. J. Pharmacol., 106, 539 (1985)/, respectively. 5-HT2A receptor binding was measured in rat brain frontal cortex membrane preparation using tritiated ketanserine /3-/2-(4-fluorobenzoyl)- -1-piperidinyl/ethyl-2,4-(1H,3H)-quinazoline-dione/(60-90 Ci/mmole) as ligand. 5-HT2C receptor binding was measured in pig brain choroid plexus membrane preparation using tritiated mesulergine /N'-/(8)-1,6-dimethyl-ergoline-8-yl/-N,N-dimethylsulfamide (70-85 Ci/mmole) as the ligand. Non-specific binding to 5-HT2A and 5-HT2C receptors were determined in the presence of 10 micro M cyproheptadine/4-(5H-dibenzo/a,d/cycloheptene-5-ylidene)-1-methylpiperidine/ and 1 micro M mianserine/1,2,3,4,10,14b-hexahydro-2-methyldibenzo-/c,f/pyrazino/1,2-a/azepine/, respectively. The final incubation volumes were 250 and 1000 microlitres. Samples were incubated for 15 and 30 minutes at 37° C. Incubation was stopped by adding 9 ml of ice-cold 50 mM tris(hydroxymethyl)-aminomethane hydrochloride (pH=7.7) to the reaction mixture. The samples were rapidly filtered through Whatman GF/B glass fiber filters using reduced pressure. Before use, the filters were soaked in a 0.05% poly-ethyleneimine solution for 2 to 3 hours. Radioactivity of the filters was determined by a scintillation spectrometer.

[2] = biological target: T2, 5-HT2A receptor (Oryctolagus cuniculus, UniProt G1SYA7); experiment: 5-HT2A receptor antagonistic effect: inhibition of 5-HT-evoked contractions on isolated rabbit aortic strips; type: cell-based, rabbit (New-Zealand, male, white); conditions: 5-HT 10^-6 M; phenoxybenzamine 10^-8 M; tranylcypramine 10^-7 M; 10 minutes incubation
T2 construct: The thoracic aorta segment after the aortic arch was removed; from tissue; host or cells: rabbit thoracic aorta, helical strips
T2 sequence (G1SYA7 1-469): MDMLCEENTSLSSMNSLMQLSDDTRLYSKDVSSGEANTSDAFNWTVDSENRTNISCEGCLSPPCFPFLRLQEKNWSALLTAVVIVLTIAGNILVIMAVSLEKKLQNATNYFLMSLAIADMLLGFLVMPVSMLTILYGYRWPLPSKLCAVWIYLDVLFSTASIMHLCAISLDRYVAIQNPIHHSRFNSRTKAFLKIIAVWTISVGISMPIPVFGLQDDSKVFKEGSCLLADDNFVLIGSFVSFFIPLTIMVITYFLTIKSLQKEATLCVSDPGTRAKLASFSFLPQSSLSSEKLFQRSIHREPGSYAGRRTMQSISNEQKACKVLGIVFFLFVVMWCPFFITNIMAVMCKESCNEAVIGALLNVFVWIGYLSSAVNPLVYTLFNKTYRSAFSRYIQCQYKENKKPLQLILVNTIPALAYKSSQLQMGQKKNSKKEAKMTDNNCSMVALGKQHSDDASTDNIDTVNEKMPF
Description: New-Zealand, male, white rabbits weighing 2.0 to 2.5 kg were killed by a blow on the head. The thoracic aorta segment after the aortic arch was removed and placed into a Krebs' solution (NaCl 118 mM, KCl 4.6 mM, NaHCO3 25 mM, glucose 10.5 mM, […] 1 mM, KH2PO4 1 mM, CaCl2 2.6 mM). The aorta was carefully cleaned from fat and connective tissue, and was cut into 3 mm wide and 30 mm long helical strips. Four strips were obtained from each rabbit. The strips were equilibrated at 37° C. for 60 minutes in an organ chamber filled with Krebs' solution. The strips were also oxygenated by bubbling carbogen gas (5% of carbon dioxide and 95% of oxygen) through the solution. The strips were stretched by 1 g tension.
The contractions were measured by a Hugo Sachs K-30 type strain gauge, and were registered on a Multicorder type polygraph. During the last 40 minutes of the equilibration, the MAO enzym inhibitor tranylcypramine (10^-7 M) /chemical name: (±)-trans-2-phenylcyclopropylamine/ was also added to the bath.
Any alpha-adrenergic effects of the test compounds were eliminated by 10^-8 M of phenoxybenzamine /N-(2-chloroethyl)-N-(1-methyl-2-phenoxyethyl)benzylamine/ /Clancy et al., J. Pharm. Exp. Ther., 233, 761 (1985). Testing of the serotonergic antagonistic effect was started at the 90th minute of incubation. The stability and reproducibility of the contractile response of the aortic strips to serotonin was tested by two consecutive application and wash-out procedures of 10^-6 M concentration of 5-HT, 40 minutes apart. […] 30 minutes after the second testing, a preset concentration of the test compound was added to the bath, and, after a 10 minutes incubation time, the response to 10^-6 M of 5-HT was determined in the presence of the compound to be tested.
Two different concentrations of a given compound were tested on each aortic strip by the above method. Reproducibility of the control 5-HT-evoked response was checked between testing the two concentrations of the compound.
IC50 was calculated by nonlinear curve fitting of the inhibitory effect of increasing concentrations of the test compound.

[3] = biological target: T3, 5-HT2A receptor (Rattus norvegicus, UniProt P14842); experiment: 5-HT2A receptor binding ([3H]ketanserine, rat brain frontal cortex membrane preparation); conditions: tritiated ketanserine, 37° C., read-out: Inhibition of receptor binding of the radioactive ligand, 5-HT2A (Ki)
T3 construct: rat brain frontal cortex membrane preparation; from tissue; host or cells: rat brain frontal cortex membrane preparation
T3 sequence (P14842 whole entry): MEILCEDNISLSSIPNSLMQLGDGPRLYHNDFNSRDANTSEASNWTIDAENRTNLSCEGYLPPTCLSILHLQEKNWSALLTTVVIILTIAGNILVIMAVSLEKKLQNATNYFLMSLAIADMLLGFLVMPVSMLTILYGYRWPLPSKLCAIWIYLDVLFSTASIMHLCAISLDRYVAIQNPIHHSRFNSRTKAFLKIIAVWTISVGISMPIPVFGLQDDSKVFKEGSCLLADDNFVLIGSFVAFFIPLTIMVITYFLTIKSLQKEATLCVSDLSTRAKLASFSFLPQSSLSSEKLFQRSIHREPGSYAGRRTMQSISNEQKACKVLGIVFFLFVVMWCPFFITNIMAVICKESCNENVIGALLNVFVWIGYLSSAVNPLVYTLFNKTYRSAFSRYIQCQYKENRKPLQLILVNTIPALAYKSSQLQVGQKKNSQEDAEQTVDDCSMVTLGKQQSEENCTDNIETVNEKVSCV
Description: as §1

`Nc1cc(N)nc(SCCN2CCN(Cc3ccc(F)cc3)CC2)n1` [Example 3, 2-[2-/4-(4-Fluorobenzyl)-1-piperazinyl/-ethylthio]-7-4,6-diaminopyrimidine] was tested, and the pKi [1] was < 7.00, the pIC50 [2] was 6.02 and the pKi [3] was 7.24.
In the case of `Nc1cc(N)nc(SCCN2CCN(Cc3ccccc3Cl)CC2)n1` [Example 5, 2-[2-/4-(2-Chlorobenzyl)-1-piperazinyl/-ethylthio]-4,6-diaminopyrimidine], the pKi [1] was 7.17, the pIC50 [2] was 6.60 and the pKi [3] was 7.80.
With `COc1cccc(CN2CCN(CCSc3nc(N)c(Cc4ccccc4)c(N)n3)CC2)c1` [Example 12, 2-[2-/4-(3-Methdxybenzyl)-1-piperazinyl/-ethylthio]-4,6-diamino-5-benzylpyrimidine] the pKi [1] was 7.33 and the pKi [3] was < 7.00.
Compound `Nc1nc(SCCN2CCN(Cc3ccccc3Cl)CC2)nc(N)c1Cc1ccccc1` [Example 13, 2-[2-/4-(2-Chlorobenzyl)-1-piperazinyl/-ethylthio]-4,6-diamino-5-benzylpyrimidine] has a pKi [1] of 7.92, a pIC50 [2] of 6.92 and a pKi [3] of 7.70.
For `Nc1nc(SCCN2CCN(Cc3ccc([N+](=O)[O-])cc3)CC2)nc(N)c1Cc1ccccc1` [Example 14, 2-[2-/4-(4-Nitrobenzyl)-1-piperazinyl/-ethylthio]-4,6-diamino-5-benzylpyrimidine], the pKi [1] was < 7.00, the pIC50 [2] was 5.22 and the pKi [3] was 7.11.
For `Nc1nc(SCCN2CCN(Cc3ccc([N+](=O)[O-])cc3)CC2)nc(N)c1Cc1ccccc1O` [Example 19, 2-[2-/4-(4-Nitrobenzyl)-1-piperazinyl/-ethylthio]-4,6-diamino-5-(2-hydroxybenzyl)-pyrimidine], the pKi [1] was < 7.00 and the pKi [3] was 7.32.
`Nc1nc(SCCN2CCN(Cc3cccc(C(F)(F)F)c3)CC2)nc(N)c1Cc1ccc(F)cc1` [Example 21, 2-[2-/4-(3-Trifluoromethylbenzyl)-1-piperazinyl/ethylthio]4,6-diamino-5-(4-fluorobenzyl)pyrimidine] was tested, and the pKi [1] was 7.41 and the pKi [3] was < 7.00.
In the case of `COc1ccc(Cc2c(N)nc(SCCN3CCN(Cc4ccc(C)cc4)CC3)nc2N)cc1` [Example 23, 2-[2-/4-(4-Methylbenzyl)-1-piperazinyl/-ethylthio]-4,6-diamino-5-(4-methoxybenzyl)-pyrimidine], the pKi [1] was < 7.00, the pIC50 [2] was 6.17 and the pKi [3] was 7.70.
Compound `COc1ccc(Cc2c(N)nc(SCCN3CCN(Cc4ccccc4C)CC3)nc2N)cc1` [Example 24, 2-[2-/4-(2-Methylbenzyl)-1-piperazinyl/-ethylthio]-4,6-diamino-5-(4-methoxybenzyl)-pyrimidine] has a pKi [1] of 7.66, a pIC50 [2] of 6.62 and a pKi [3] of 7.74.
In the case of `COc1ccc(Cc2c(N)nc(SCCN3CCN(Cc4ccccc4F)CC3)nc2N)cc1` [Example 25, 2-[2-/4-(2-Fluorobenzyl)-1-piperazinyl/-ethylthio]-4,6-diamino-5-(4-methoxybenzyl)-pyrimidine], the pKi [1] was < 7.00, the pIC50 [2] was 6.55 and the pKi [3] was 7.70.
`COc1ccc(Cc2c(N)nc(SCCN3CCN(Cc4cccc(C#N)c4)CC3)nc2N)cc1` [Example 26, 2-[2-/4-(3-Cyanobenzyl)-1-piperazinyl/-ethylthio]-4,6-diamino-5-(4-methoxybenzyl)-pyrimidine] gave a pKi [1] of 7.35, a pIC50 [2] of 6.59 and a pKi [3] of 7.32.
`COc1ccc(Cc2c(N)nc(SCCN3CCN(Cc4ccccc4C#N)CC3)nc2N)cc1` [Example 27, 2-[2-/4-(2-Cyanobenzyl)-1-piperazinyl/-ethylthio]-4,6-diamino-5-(4-methoxybenzyl)-pyrimidine] gave a pIC50 [2] of 6.05.
In the case of `COc1ccc(Cc2c(N)nc(SCCN3CCN(Cc4cccc(OC)c4)CC3)nc2N)cc1` [Example 28, 2-[2-/4-(3-Methoxybenzyl)-1-piperazinyl/-ethylthio]-4,6-diamino-5-(4-methoxybenzyl)-pyrimidine], the pKi [1] was 7.30 and the pKi [3] was < 7.00.
For `COc1ccccc1Cc1c(N)nc(SCCN2CCN(Cc3ccc([N+](=O)[O-])cc3)CC2)nc1N` [Example 34, 2-[2-/4-(4-Nitrobenzyl)-1-piperazinyl/-ethylthio]-4,6-diamino-5-(2-methoxy-benzyl)pyrimidine], the pKi [1] was < 7.00 and the pKi [3] was 7.15.
`COc1ccc(Cc2c(N)nc(SCCN3CCN(Cc4cccc(C(F)(F)F)c4)CC3)nc2N)cc1` [Example 35, 2-[2-/4-(3-Trifluoromethylbenzyl)-1-piperazinyl/-ethyl-thio]-4,6-diamino-5-(4-methoxybenzyl)pyrimidine] was tested, and the pKi [1] was 7.16 and the pKi [3] was < 7.00.
`COc1ccccc1Cc1c(N)nc(SCCN2CCN(Cc3cccc(C(F)(F)F)c3)CC2)nc1N` [Example 36, 2-[2-/4-(3-Trifluoromethylbenzyl)-1-piperazinyl/ethylthio]-4,6-diamino-5-(2-methoxybenzyl)pyrimidine] was tested, and the pKi [1] was 7.74 and the pKi [3] was < 7.00.
With `Cc1ccccc1CN1CCN(CCSc2nc(N)c(Cc3ccccc3Cl)c(N)n2)CC1` [Example 39, 2-[2-/4-(2-Methylbenzyl)-1-piperazinyl/-ethylthio]-4,6-diamino-5-(2-chloro-benzyl)pyrimidine] the pKi [1] was 7.57 and the pIC50 [2] was 6.52.
`Cc1ccc(CN2CCN(CCSc3nc(N)c(Cc4ccccc4Cl)c(N)n3)CC2)cc1` [Example 40, 2-[2-/4-(4-Methylbenzyl)-1-piperazinyl/-ethylthio]-4,6-diamino-5-(2-chlorobenzyl)-pyrimidine] was tested, and the pKi [1] was < 7.00 and the pKi [3] was 7.68.
With `Nc1nc(SCCN2CCN(Cc3ccccc3Cl)CC2)nc(N)c1Cc1ccc(Cl)cc1` [Example 47, 2-[2-/4-(2-Chlorobenzyl)-1-piperazinyl/ethylthio]-4,6-diamino-5-(4-chlorobenzyl)-pyrimidine] the pKi [1] was 7.48 and the pKi [3] was < 7.00.
`CN(C)c1ccc(Cc2c(N)nc(SCCN3CCN(Cc4ccccc4C#N)CC3)nc2N)cc1` [Example 54, 2-[2-/4-(2-Cyanobenzyl)-1-piperazinyl/-ethylthio]-4,6-diamino-5-(4-dimethylamino-benzyl)pyrimidine] was tested, and the pIC50 [2] was 6.24.
In the case of `COc1ccc(CN2CCN(CCSc3nc(N)c(Cc4cc(OC)c(OC)c(OC)c4)c(N)n3)CC2)cc1` [Example 66, 2-[2-/4-(4-Methoxybenzyl)-1-piperazinyl/-ethylthio]-4,6-diamino-5-(3,4,5-trimethoxy-benzyl)pyrimidine], the pKi [1] was < 7.00 and the pKi [3] was 7.21.
With `CN(C)c1ccc(Cc2c(N)nc(SCCN3CCN(Cc4ccccc4Cl)CC3)nc2N)cc1` [Example 101, 2-[2-/4-(2-Chlorobenzyl)-1-piperazinyl/-ethylthio]-4,6-diamino-5-(4-dimethylamino-benzyl)pyrimidine] the pKi [1] was 7.62 and the pKi [3] was 7.80.
